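These data come from cells grown in 96-well plates and exposed to compound for 48 hours at five concentrations. Abbreviation: GI50, concentration required for 50% inhibition of growth.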 Calls of active or inactive are those of the source. Rule as the data show it: active = GI50 up to about 1.1 µM and inactive = higher.
Experiments:
Assay in all cases: NCI anticancer screen, dose series, 48 h
UO-31 = tested on: UO-31
SK-OV-3 = tested on: SK-OV-3
IGROV-1 = tested on: IGROV-1
NCI-H23 = tested on: NCI-H23
HCT-15 = tested on: HCT-15
EKVX = tested on: EKVX
U-251 = tested on: U-251
SNB-19 = tested on: SNB-19
COLO 205 = tested on: COLO 205
HOP-62 = tested on: HOP-62
HOP-92 = tested on: HOP-92
OVCAR-8 = tested on: OVCAR-8
CAKI-1 = tested on: CAKI-1
TK-10 = tested on: TK-10
UACC-62 = tested on: UACC-62
ACHN = tested on: ACHN
M14 = tested on: M14
KM12 = tested on: KM12
NCI-H226 = tested on: NCI-H226

Structure (SMILES) | GI50 (UO-31) | GI50 (SK-OV-3) | GI50 (IGROV-1) | GI50 (NCI-H23) | GI50 (HCT-15) [µM] | GI50 (EKVX) | GI50 (U-251) | GI50 (SNB-19) | GI50 (COLO 205) | GI50 (HOP-62) | GI50 (HOP-92) | GI50 (OVCAR-8) | GI50 (CAKI-1) | GI50 (TK-10) | GI50 (UACC-62) | GI50 (ACHN) | GI50 (M14) | GI50 (KM12) | GI50 (NCI-H226)
c1ccc(C2N3CCCCC3[C@@H]3c4[nH]c5ccccc5c4CCN23)cc1 (some centres not stated) | 70 µM (inactive) | > 100 µM (inactive) | > 100 µM (inactive) | > 100 µM (inactive) | > 100 | > 100 µM (inactive) | > 100 µM (inactive) | > 100 µM (inactive) | 23.3 µM (inactive) | > 100 µM (inactive) | > 100 µM (inactive) | > 100 µM (inactive) | > 100 µM (inactive) | > 100 µM (inactive) | 48.3 µM (inactive) | > 100 µM (inactive) | > 100 µM (inactive) |  | 
COc1c(CC(C)O)c2c3c(CC(C)O)c(OC)c(=O)c4c(O)cc5c(c6c(cc(O)c(c1=O)c62)OCO5)c43 (configuration not stated) [CERCOSPORIN] | 2.14 µM (inactive) | 4.14 µM (inactive) | 1.69 µM (inactive) | 1.4 µM (inactive) | 1.56 |  | 1.72 µM (inactive) | 2.49 µM (inactive) | 0.158 µM (active) | 1.99 µM (inactive) | 2.3 µM (inactive) | 1.74 µM (inactive) | 6.01 µM (inactive) | 2.62 µM (inactive) | 1.78 µM (inactive) | 1.63 µM (inactive) | 1.29 µM (inactive) | 1.62 µM (inactive) | 2.29 µM (inactive)
COc1ccc(C(=O)c2c3cc(OC)c(OC)c(OC)c3cc[n+]2C)cc1 | 26 µM (inactive) | 38.4 µM (inactive) | 34.8 µM (inactive) | 23.7 µM (inactive) |  | 55.3 µM (inactive) | 40 µM (inactive) | 31 µM (inactive) |  | 28.2 µM (inactive) |  | 35.7 µM (inactive) |  | 46.5 µM (inactive) |  | 26.5 µM (inactive) | 29.6 µM (inactive) | 30.4 µM (inactive) | 19.7 µM (inactive)
Cc1c2cc[n+](C)cc2c(C)c2c1[nH]c1ccccc12 | 8.65 µM (inactive) | 4.88 µM (inactive) | 3.79 µM (inactive) | 0.773 µM (active) |  | 0.834 µM (active) | 0.421 µM (active) | 0.301 µM (active) | 0.538 µM (active) | 0.45 µM (active) | 1.56 µM (inactive) | 0.368 µM (active) | 2.69 µM (inactive) | 27.2 µM (inactive) | 5.18 µM (inactive) | 12.8 µM (inactive) | 7.45 µM (inactive) | 0.429 µM (active) | 0.312 µM (active)
Cn1nc(-c2ccccc2)c(C(=O)/C=C/c2ccccc2)c(N2CCCC2)c1=O | 21.4 µM (inactive) | 22.7 µM (inactive) | 21.2 µM (inactive) | 10.4 µM (inactive) | 13.5 | 20.4 µM (inactive) | 12.9 µM (inactive) |  | 14.9 µM (inactive) | 11.9 µM (inactive) | 1.64 µM (inactive) | 16.9 µM (inactive) |  | 22.5 µM (inactive) | 13.9 µM (inactive) | 12.6 µM (inactive) | 15.7 µM (inactive) |  | 
CN(c1ccc(C(=O)c2ccc(N(C)S(C)(=O)=O)cc2)cc1)S(C)(=O)=O | 75.7 µM (inactive) | > 100 µM (inactive) |  | 34.5 µM (inactive) |  | 86.5 µM (inactive) | > 100 µM (inactive) | > 100 µM (inactive) | > 100 µM (inactive) |  | > 100 µM (inactive) | > 100 µM (inactive) | > 100 µM (inactive) | > 100 µM (inactive) | > 100 µM (inactive) | 77.8 µM (inactive) |  | > 100 µM (inactive) | > 100 µM (inactive)

— ChEMBL document CHEMBL1201862, “PubChem BioAssay data set” (2004)
